Experimental data taken from article PMC7434981, “Development of a Novel Positron Emission Tomography (PET) Radiotracer Targeting Bromodomain and Extra-Terminal Domain (BET) Family Proteins” (Frontiers in Molecular Biosciences, 2020).
pKd, pKi: −log10 of the molar value.

Columns and labels:
[1] = molecular target: BET BD1; set-up: method as in Zhao et al., 2018; settings: ref Zhao et al., 2018, cited from earlier work
[2] = test system: non-BET bromodomain-containing proteins; set-up: method as in Zhao et al., 2018; settings: ref Zhao et al., 2018; cited from earlier work
[3] = test system: BET proteins; experiment: PET/CT blocking studies in mice (specific binding); format: in vivo; settings: for radioactivity reduction in the whole-brain: based on TACs; for decrease of radioligand concentration in organs of interest: average over organs
Experimental: To evaluate the specific binding of [^11C]1, the blocking studies were carried out. Mice were pre-treated with unlabeled 1 (1.0 mg/kg) and JQ1 (1.0 mg/kg) at 5-min prior to the administration of [^11C]1. The PET/CT imaging and time-activity curves (TAC) of baseline and blocking studies are shown separately in Figure 3.
(§1) The general procedure for rodent PET/CT studies was described previously ([Bai et al., 2019], [2020a]). Briefly, the PET/CT scan was carried out by a Triumph Trimodality/SPECT scanner (Gamma Medica, Northridge, CA, United States). Mice were arranged under anesthetized 2% isoflurane (Patterson Vet Supply, Inc., Greeley, CO, United States) in a carrier of 2 L/min medical oxygen during the imaging scanning. [^11C]1 (3.7–7.4 Mbq per animal, n = 2) was injected in mice via a lateral tail vein catheterization before PET acquisition. For the blocking study, the radioligand was administrated after CF53, or JQ1 was injected via a lateral tail vein catheterization 5-min before the start of PET acquisition. Dynamic PET acquisition lasted for 60 min followed by 10-min CT for anatomic co-registration. PET data were reconstructed using a 3D-MLEM method resulting in full width at a half-maximum resolution of 1 mm. These files were imported and analyzed using AMIDE ([Loening and Gambhir, 2003]) (a medical imaging data examiner) software (an open-source software, Los Angeles, CA, United States) and PMOD (PMOD 4.01, PMOD Technologies Ltd., Zurich, Switzerland).
(§2) Dynamic PET data were collected and the corresponding images were reconstructed by 3D-MLEM method resulting in full width at a half-maximum resolution of 1 mm. Volumes of interest (VOIs) were generated manually in forms of spheres under the guide of high-resolution CT structural images. TACs were exported as decay-corrected activity per unit volume. The TACs were expressed as percent injected dose per unit volume (%ID/cc) for analysis.

[4] = Dynamic PET/CT imaging in mice, baseline uptake and biodistribution; format: in vivo, male Balb/c mice
Experimental: Following the successful radiosynthesis, we stepped forward to evaluate [^11C]1 as a potential BET PET radiotracer by PET imaging experiments in rodents. Dynamic PET imaging in male Balb/c mice was conducted following the injection of [^11C]1 via the tail vein at the dose of 3.7–7.4 Mbq for each scan. Each dynamic PET imaging scan lasted for 60 min and followed by a 10-min of computed tomography (CT) scan. The PET/CT imaging analysis was then performed by dynamic data collection and image reconstruction. The biodistribution of [^11C]1 in the whole-body of mice is initially studied. As depicted in Figure 2, four time-points (5, 10, 30, and 60 min) after [^11C]1 injection were selected to evaluate the uptake, biodistribution, and clearance of the radioligand in the organs of interests. […] In the heart, spleen, and lung, the uptakes of radioligand reached a peak sharply and followed by gradual wash-out post-injection.
as §1, §2

Row | distribution in blood-rich organs ([4]; heart, liver and kidney, i.v. tail vein, 5-60 min post-injection) | time of max brain uptake ([4]; post-injection, whole brain) [min] | brain-blood barrier (BBB) penetration ([4]; whole brain PET) | max brain uptake ([4]; whole-brain analysis, i.v.) [% ID/cc] | SMILES | pKi ([1]; binding affinity to BET BD1) | pKd ([1]; to BET BD1, printed in Figure 1) | selectivity over non-BET bromodomain-containing proteins [2] | radioactivity reduction in the whole-brain ([3]; JQ1-blocking (1.0 mg/kg JQ1)) [%] | decrease of radioligand concentration in organs of interest ([3]; JQ1-blocking: pre-treated with JQ1 (1.0 mg/kg) 5 min prior) | radioactivity reduction in the whole-brain ([3]; self-blocking (1.0 mg/kg CF53)) [%] | decrease of radioligand concentration in organs of interest ([3]; self-blocking: pre-treated with unlabeled 1 (1.0 mg/kg) 5 min prior)
1 | – | – | – | – | COc1cc2c(cc1-c1c(C)noc1C)[nH]c1nc(C)nc(Nc3cc(C4CC4)nn3C)c12 [Compound 1] | > 9.00 | 8.66 to 9.31 | high selectivity | – | – | – | –
2 | highly distributed | ~2 | limited | 0.9 | Cc1nc(Nc2cc(C3CC3)nn2C)c2c(n1)[nH]c1cc(-c3c(C)noc3C)c(O[11CH3])cc12 [[^11C]1] | – | – | – | ~50 | over 40% | ~50 | over 40%
